# From publication PMC11596155, “When Chirality Makes the Difference: The Case of Novel Enantiopure N-Heterocyclic Carbene–Gold and –Silver Complexes” (Molecules, 2024)
# What was measured:
# [1] = system: NO production in LPS-stimulated RAW 264.7 macrophages (iNOS); assay: Griess assay, NO production in LPS-stimulated RAW 264.7 macrophages; assay type: cell-based, murine; conditions: 24 h, LPS 1 µg/mL, RAW 264.7, vs LPS only
# From the text: Inflammation is an important process, in which the immune system is activated, allowing the protection from infections by eliminating pathogens and promoting repairing phenomena. However, in some cases, the inflammation can become chronic, playing a key role in several diseases, such as cancer, diabetes, autoimmune and neurodegenerative disorders. Moreover, chronic inflammation is characterized by a proliferation of different specialized cells, for instance macrophages, fibroblasts, granulocytes and so on. […] NO is produced by nitric oxide synthases (NOS) isoforms, but under different pro-inflammatory stimuli (cytokines or microbial products) it is massively produced by the inducible NOS (iNOS, NOS2; or type II NOS). iNOS can be also overexpressed in several diseases, producing NO in an unregulated manner and contributing to the disease progression. For these reasons, its inhibition represents a good strategy for the treatment of various diseases related to chronic inflammation, amongst them cancer. The anti-inflammatory activity, in terms of NO production inhibition, of the new synthesized chiral complexes was evaluated by the means of a Griess-based assay. Particularly, the NO production was induced in murine macrophages RAW 264.7 stimulated with bacterial lipopolysaccharide (LPS), then they were exposed to the complexes for 24 h and the released NO was quantified (as detailed in the Section 3). […] Therefore, pro-ligands P1 and P2, as R and S pure enantiomers, were tested. The obtained outcomes are visible in Figure 2 (panels A and B, P1 and P2 series, respectively), where it is possible to notice “at glance” that most of the enantiopure compounds were unable to decrease the NO synthesis, induced by LPS treatment in RAW 264.7 macrophages (see pink bars in the graph), with the exception of (R)-AuL1 and (R)-AuL2. Particularly, (R)-AuL1 was able to decrease, dose-dependently, the NO production of about 23 and 35% at 5 and 10 µM, respectively, whereas the S enantiomer was unable to reduce NO, under the same experimental conditions. […] Furthermore, none of the pro-ligands was found able to decrease NO production. […] Finally, viability assays were performed on RAW 264.7 macrophages, recovered after the Griess test.
# Anti-inflammatory activity was tested adopting the Griess assay on RAW 264.7 murine macrophages, by measuring NO production, as reported by. Specifically, RAW 264.7 cells were plated on 48 multi-wells and treated with the tested molecules at the indicated concentrations; lipopolysaccharide (LPS, Sigma Aldrich, Milan, Italy), at a final concentration of 1 µg/mL, was used to induce inflammation and stimulate NO production. After 24 h, the cell medium and Griess reagent were mixed at a 1:1 ratio and left under agitation for 30 min, at room temperature. Then, absorbance was measured at 540 nm, using a multiplate reader. The absorbance obtained allowed to assess the percentage of NO production compared with the positive control, in which the cells have been treated with LPS.
# Figure 2 Panel (A), L1 series and panel (B), L2 series. Anti-inflammatory activity (pink bars): NO production was induced in murine macrophages RAW 264.7 treated with LPS (1 µg/mL), in presence or not of the enantiopure complexes and pro-ligands at the indicated concentrations (µM), for 24 h. Indomethacin (Ind) was used as the reference molecule. Data were plotted as % NO inhibition with respect to LPS-only treatment. […]
# MCF-7 cells = assay: MTT assay, anticancer activity, MCF-7; assay type: cell-based, human; conditions: 72 h, mean ± SD of three experiments
# Protocol: (§1) All cell lines used for the reported studies were purchased from the American Type Culture Collection (ATCC, Manassas, VA, USA). Human breast cancer cells MCF-7 and MDA-MB-231 were maintained in Dulbecco’s Modified Eagle Medium/Nutrient Mixture F12 Ham (DMEM/F12) supplemented with 5% fetal bovine serum (FBS), 1% L-glutamine and 100 units/mL of penicillin/streptomycin. Human mammary epithelial cells MCF-10A were cultured in DMEM/F12 medium, supplemented with 5% horse serum (HS), 100 units/mL of penicillin/streptomycin, […], 0.02 µg/mL human epidermal growth factor (EGF), 10 µg/mL insulin and […] [34]. The murine macrophages RAW 264.7 were grown in Dulbecco’s Modified Eagle’s Medium (DMEM) high glucose (4.5 g/L), added with 10% fetal bovine serum (FBS), 1% L-glutamine and 100 units/mL of penicillin/streptomycin. Cells were maintained at 37 °C, in a humidified atmosphere containing 5% CO2.
# (§2) Cell viability was determined using the 3-(4,5-dimethylthiazol-2-y1)-2,5-diphenyltetrazolium bromide assay (MTT, Sigma-Aldrich, Milan, Italy), as in [35]. Cells were treated for 72 h (anticancer activity) or 24 h (anti-inflammatory activity) at different concentrations and the IC50 values were obtained using GraphPad Prism 9 software (GraphPad Software, La Jolla, CA, USA).
# MDA-MB-231 cells = assay: MTT assay, anticancer activity, MDA-MB-231; assay type: cell-based, human; conditions: 72 h, mean ± SD of three experiments
# Protocol: as §1, §2
# MCF-10A cells = assay: MTT assay, cytotoxicity on normal mammary epithelial cells MCF-10A; assay type: cell-based, human; conditions: 72 h; for IC50: normal cells, mean ± SD of three experiments
# Protocol: as §1, §2
# [2] = system: Escherichia coli (ATCC 25922); assay: MIC and MBC by broth dilution, E. coli; assay type: cell-based; conditions: broth dilution, overnight 37 °C
# From the text: (§3) The bacterial strains used for MIC and MBC value determinations expressed as µg/mL by the broth dilution method, according to CLSI guidelines, were the following: Gram-negative: Escherichia coli (ATCC® 25922TM); Gram-positive: Staphylococcus aureus (ATCC® 23235TM). The MIC represents the lowest concentration of compound able to inhibit the visible microbial growth, expressed in μg/mL, whereas the MBC is the lowest concentration of a given compound that can completely kill the bacteria. Bacteria were grown overnight in LB medium (2%), diluted at a density of […] colony forming units (CFUs/mL), plated in the 96-well microplates to obtain a total inoculum load of ca. 10^5 cells/well and then treated with increasing concentrations of the tested complexes (1, 5, 10, 20, 50, 100, 200 μg/mL). Successively, after incubation at 37 °C overnight, the bacterial growth was monitored at a wavelength of 600 nm using a Multiskan spectrophotometer (Multiskan Ex Microplate model; Thermo Scientific, Nyon, Switzerland). MIC or MBC values were obtained by comparing cell density with a positive control (bacterial cells grown in LB medium were added with only the vehicle, DMSO). The results were representative of three independent experiments performed in triplicate and ampicillin (Sigma Aldrich A9393) was used as the control for strain sensitivity.
# [3] = system: Staphylococcus aureus (ATCC 23235); assay: MIC and MBC by broth dilution, S. aureus; assay type: cell-based; conditions: broth dilution, overnight 37 °C
# From the text: as §3
Compound,decrease of NO production ([1]; 5 µM),decrease of NO production ([1]; 10 µM),IC50 (MCF-7 cells),IC50 (MDA-MB-231 cells),IC50 (MCF-10A cells),M.B.C. E. coli [2],M.I.C. E. coli [2],M.B.C. S. aureus [3],M.I.C. S. aureus [3],decrease of NO production ([1]; 50 µM),decrease of NO production ([1]; 1 µM),cytotoxicity toward normal MCF-10A cells (in words) (MCF-10A cells)
"CN1C=CN(C[C@H](O)c2ccccc2)[CH]1[Au-][Cl] (stereo partly drawn) [(R)-AuL1, (1-((R)-2-hydroxy-2-phenylethyl)-3-methyl-2,3-dihydro-1H-imidazol-2-yl)gold(I) chloride]",about 23%,~35%,16 ± 0.8 µM,15.3 ± 4.5 µM,52.9 ± 2.2 µM,> 150 µg/mL,75 µg/mL,> 150 µg/mL,25 µg/mL,,,
"COc1ccc2c(c1)c(CC(=O)O)c(C)n2C(=O)c1ccc(Cl)cc1 [Ind, Indomethacin, reference compound]",,,,,,,,,,about 26%,,
"CN1C(Cl)=C(Cl)N(C[C@H](O)c2ccccc2)[CH]1[Au-][Cl] (stereo partly drawn) [(R)-AuL2, (4,5-dichloro-1-((R)-2-hydroxy-2-phenylethyl)-3-methyl-2,3-dihydro-1H-imidazol-2-yl)gold(I) chloride]",~50%,,2.2 ± 0.2 µM,1.2 ± 0.2 µM,38 ± 2.2 µM,> 150 µg/mL,75 µg/mL,> 100 µg/mL,75 µg/mL,,about 10%,did not impact
